In patent US10501461B2, “Tyrosine amide derivatives as Rho-kinase inhibitors” (CHIESI FARMACEUTICI S.P.A., priority 2017, dated 2019):

How the values were obtained:
Rho kinase 2 (ROCK-II) = Rho kinase 2 (ROCK-II) (Homo sapiens, UniProt O75116); experiment: In vitro Rho kinase inhibitory activity assay (ADP-Glo), Rho kinase 2; format: biochemical; conditions: 10 μM ATP, 25° C., expressed as range of activity
Outline: (§1)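 ADP-Glo luminescence assay at 25 °C in 40 mM Tris pH 7.5, 20 mM MgCl2, 0.1 mg/ml BSA, 50 μM DTT, with 2.5 μM myelin basic protein, 10 μM ATP and 1% DMSO. Compound and ROCK1 or ROCK2 were preincubated 30 min, then reacted 1 h. IC50 came from a sigmoidal fit; Ki via Cheng-Prusoff.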

Rho kinase 1 (ROCK-I) = Rho kinase 1 (ROCK-I) (Homo sapiens, UniProt Q13464); experiment: In vitro Rho kinase inhibitory activity assay (ADP-Glo), Rho kinase 1; format: biochemical; conditions: 10 μM ATP, 25° C., expressed as range of activity
Outline: as §1

Sequence of Rho kinase 2 (ROCK-II) (O75116 whole entry): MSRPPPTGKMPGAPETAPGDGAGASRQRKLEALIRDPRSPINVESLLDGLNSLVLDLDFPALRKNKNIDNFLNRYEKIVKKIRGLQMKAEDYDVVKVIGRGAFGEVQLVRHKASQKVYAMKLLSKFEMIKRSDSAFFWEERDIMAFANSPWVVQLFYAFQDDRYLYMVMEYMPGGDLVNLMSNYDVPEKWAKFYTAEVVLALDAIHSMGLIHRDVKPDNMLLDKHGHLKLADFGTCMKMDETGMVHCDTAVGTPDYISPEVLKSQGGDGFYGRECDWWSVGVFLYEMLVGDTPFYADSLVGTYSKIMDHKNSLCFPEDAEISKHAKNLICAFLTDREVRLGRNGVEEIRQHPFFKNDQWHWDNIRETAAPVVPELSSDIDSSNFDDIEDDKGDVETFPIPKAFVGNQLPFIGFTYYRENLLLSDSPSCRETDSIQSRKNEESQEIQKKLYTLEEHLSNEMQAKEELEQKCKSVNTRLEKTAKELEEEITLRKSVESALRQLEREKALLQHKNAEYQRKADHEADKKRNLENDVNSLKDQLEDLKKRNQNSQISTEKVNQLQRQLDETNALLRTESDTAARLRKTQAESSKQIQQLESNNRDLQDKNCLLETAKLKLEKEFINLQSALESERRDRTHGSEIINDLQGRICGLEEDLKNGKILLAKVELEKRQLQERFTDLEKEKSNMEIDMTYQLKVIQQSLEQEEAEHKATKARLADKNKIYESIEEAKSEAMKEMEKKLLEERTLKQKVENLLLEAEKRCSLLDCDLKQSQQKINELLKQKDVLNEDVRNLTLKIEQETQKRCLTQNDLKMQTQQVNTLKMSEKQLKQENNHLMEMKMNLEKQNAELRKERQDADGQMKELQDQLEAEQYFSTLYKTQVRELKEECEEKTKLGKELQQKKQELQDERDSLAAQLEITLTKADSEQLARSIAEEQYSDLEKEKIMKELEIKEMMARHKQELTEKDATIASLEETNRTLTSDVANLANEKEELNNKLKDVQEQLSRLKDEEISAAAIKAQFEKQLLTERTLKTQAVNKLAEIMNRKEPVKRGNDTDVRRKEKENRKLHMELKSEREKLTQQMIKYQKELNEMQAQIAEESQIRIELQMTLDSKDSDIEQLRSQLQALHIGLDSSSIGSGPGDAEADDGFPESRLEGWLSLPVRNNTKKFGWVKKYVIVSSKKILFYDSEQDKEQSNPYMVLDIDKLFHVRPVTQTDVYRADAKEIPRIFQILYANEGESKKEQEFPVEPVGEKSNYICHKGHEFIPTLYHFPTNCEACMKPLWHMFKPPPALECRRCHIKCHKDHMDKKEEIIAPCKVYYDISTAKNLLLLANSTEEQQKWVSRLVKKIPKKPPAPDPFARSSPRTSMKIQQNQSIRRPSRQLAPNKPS
Sequence of Rho kinase 1 (ROCK-I) (Q13464 whole entry): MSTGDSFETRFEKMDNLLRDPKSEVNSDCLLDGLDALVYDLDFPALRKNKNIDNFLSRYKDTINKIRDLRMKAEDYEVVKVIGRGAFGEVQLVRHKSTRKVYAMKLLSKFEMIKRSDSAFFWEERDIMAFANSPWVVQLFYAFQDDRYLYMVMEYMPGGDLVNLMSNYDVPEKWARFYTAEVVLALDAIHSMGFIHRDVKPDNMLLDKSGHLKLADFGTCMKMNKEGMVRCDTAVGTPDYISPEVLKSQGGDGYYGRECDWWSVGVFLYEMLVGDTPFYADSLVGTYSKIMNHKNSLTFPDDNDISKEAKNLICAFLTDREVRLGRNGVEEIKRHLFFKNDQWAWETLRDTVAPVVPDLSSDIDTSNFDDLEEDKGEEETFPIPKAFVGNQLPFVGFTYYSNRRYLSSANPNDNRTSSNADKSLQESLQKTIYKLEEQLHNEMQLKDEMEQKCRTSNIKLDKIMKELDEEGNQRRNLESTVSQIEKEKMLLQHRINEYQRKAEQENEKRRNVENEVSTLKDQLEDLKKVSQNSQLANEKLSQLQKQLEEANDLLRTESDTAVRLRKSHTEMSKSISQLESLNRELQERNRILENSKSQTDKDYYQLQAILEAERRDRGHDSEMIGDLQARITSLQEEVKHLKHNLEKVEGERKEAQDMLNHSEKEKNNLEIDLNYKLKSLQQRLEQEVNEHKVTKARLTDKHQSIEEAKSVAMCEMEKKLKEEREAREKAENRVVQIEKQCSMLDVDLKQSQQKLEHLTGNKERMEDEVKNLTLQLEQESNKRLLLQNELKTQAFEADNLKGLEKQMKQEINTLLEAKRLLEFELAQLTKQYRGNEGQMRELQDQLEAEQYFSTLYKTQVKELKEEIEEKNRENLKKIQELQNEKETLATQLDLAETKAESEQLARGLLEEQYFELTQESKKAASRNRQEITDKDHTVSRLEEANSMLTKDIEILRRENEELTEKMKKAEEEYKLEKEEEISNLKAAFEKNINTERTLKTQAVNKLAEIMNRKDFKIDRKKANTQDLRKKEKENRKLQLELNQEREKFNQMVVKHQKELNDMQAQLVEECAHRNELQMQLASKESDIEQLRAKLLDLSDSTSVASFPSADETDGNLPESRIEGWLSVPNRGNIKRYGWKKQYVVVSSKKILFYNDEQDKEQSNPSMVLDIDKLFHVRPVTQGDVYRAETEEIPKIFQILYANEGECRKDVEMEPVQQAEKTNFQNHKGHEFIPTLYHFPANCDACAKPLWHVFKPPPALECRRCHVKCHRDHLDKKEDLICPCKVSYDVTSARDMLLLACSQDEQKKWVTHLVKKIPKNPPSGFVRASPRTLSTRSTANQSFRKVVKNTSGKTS

Compound: Cc1c[nH]c2ncnc(Oc3ccc(C[C@H](N)C(=O)NC4CCN(C)CC4)cc3F)c12 [Example 117, (S)-2-amino-3-(3-fluoro-4-((5-methyl-7H-pyrrolo[2,3-d]pyrimidin-4-yl)oxy)phenyl)-N-(1-methylpiperidin-4-yl)propanamide]
- Ki (Rho kinase 2 (ROCK-II)): 3 to 30 nM
- Ki (Rho kinase 1 (ROCK-I)): 3 to 30 nM

Compound: N[C@@H](Cc1ccc(Oc2ccnc3[nH]cc(Br)c23)c(F)c1)C(=O)N1CCN(Cc2ccccc2)CC1 [Example 187, (S)-2-amino-1-(4-benzylpiperazin-1-yl)-3-(4-((3-bromo-1H-pyrrolo[2,3-b]pyridin-4-yl)oxy)-3-fluorophenyl)propan-1-one]
- Ki (Rho kinase 2 (ROCK-II)): < 3 nM
- Ki (Rho kinase 1 (ROCK-I)): < 3 nM

Compound: Cc1cc2c(Oc3ccc(C[C@H](N)C(=O)N4CCN(Cc5ccccc5)CC4)cc3F)ccnc2[nH]1 [Example 86, (S)-2-amino-1-(4-benzylpiperazin-1-yl)-3-(3-fluoro-4-((2-methyl-1H-pyrrolo[2,3-b]pyridin-4-yl)oxy)phenyl)propan-1-one]
- Ki (Rho kinase 2 (ROCK-II)): > 30 nM
- Ki (Rho kinase 1 (ROCK-I)): > 30 nM

Compound: N[C@@H](Cc1ccc(Oc2ccnc3[nH]ccc23)cn1)C(=O)NC1CCCCC1 [Example 227, (S)-3-(5-((1H-pyrrolo[2,3-b]pyridin-4-yl)oxy)pyridin-2-yl)-2-amino-N-cyclohexylpropanamide]
- Ki (Rho kinase 2 (ROCK-II)): > 30 nM
- Ki (Rho kinase 1 (ROCK-I)): > 30 nM

Compound: Cc1c[nH]c2nccc(Oc3ccc(C[C@@H](N)C(=O)Nc4ccccc4)cc3)c12 [Example 138, (R)-2-amino-3-(4-((3-methyl-1H-pyrrolo[2,3-b]pyridin-4-yl)oxy)phenyl)-N-phenylpropanamide]
- Ki (Rho kinase 2 (ROCK-II)): 3 to 30 nM
- Ki (Rho kinase 1 (ROCK-I)): 3 to 30 nM

Compound: Cc1c[nH]c2nccc(Oc3ccc(C[C@H](N)C(=O)N4CCN(C(=O)c5cn(C)cn5)CC4)cc3F)c12 [Example 176, (S)-2-amino-3-(3-fluoro-4-((3-methyl-1H-pyrrolo[2,3-b]pyridin-4-yl)oxy)phenyl)-1-(4-(1-methyl-1H-imidazole-4-carbonyl)piperazin-1-yl)propan-1-one]
- Ki (Rho kinase 2 (ROCK-II)): < 3 nM
- Ki (Rho kinase 1 (ROCK-I)): 3 to 30 nM

Compound: Cc1c[nH]c2nccc(Oc3ccc(C[C@@H](N)C(=O)Nc4ccccc4)cc3F)c12 [Example 149, (R)-2-amino-3-(3-fluoro-4-((3-methyl-1H-pyrrolo[2,3-b]pyridin-4-yl)oxy)phenyl)-N-phenylpropanamide]
- Ki (Rho kinase 2 (ROCK-II)): < 3 nM
- Ki (Rho kinase 1 (ROCK-I)): < 3 nM

Compound: Cc1c[nH]c2nccc(Oc3ccc(C[C@H](N)C(=O)NCCc4ccncc4)cc3)c12 [Example 89, (S)-2-amino-3-(4-((3-methyl-1H-pyrrolo[2,3-b]pyridin-4-yl)oxy)phenyl)-N-(2-(pyridin-4-yl)ethyl)propanamide]
- Ki (Rho kinase 2 (ROCK-II)): < 3 nM
- Ki (Rho kinase 1 (ROCK-I)): < 3 nM

Compound: N[C@@H](Cc1ccc(Oc2ccnc3[nH]cc(C4CC4)c23)cc1)C(=O)NC1CCCCC1 [Example 203, (S)-2-amino-N-cyclohexyl-3-(4-((3-cyclopropyl-1H-pyrrolo[2,3-b]pyridin-4-yl)oxy)phenyl)propanamide]
- Ki (Rho kinase 2 (ROCK-II)): < 3 nM
- Ki (Rho kinase 1 (ROCK-I)): < 3 nM

Compound: Cc1c[nH]c2nccc(Oc3ccc(C[C@H](N)C(=O)N4CCC[C@@H](N(C)C)C4)cc3F)c12 [Example 50, (S)-2-amino-1-((R)-3-(dimethylamino)piperidin-1-yl)-3-(3-fluoro-4-((3-methyl-1H-pyrrolo[2,3-b]pyridin-4-yl)oxy)phenyl)propan-1-one]
- Ki (Rho kinase 2 (ROCK-II)): < 3 nM
- Ki (Rho kinase 1 (ROCK-I)): < 3 nM

Compound: Cc1c[nH]c2nccc(Oc3ccc(CC(N)C(=O)NC4CCN(Cc5ccccc5)CC4)cc3F)c12 (stereo not shown) [Example 83, 2-amino-N-(1-benzylpiperidin-4-yl)-3-(3-fluoro-4-((3-methyl-1H-pyrrolo[2,3-b]pyridin-4-yl)oxy)phenyl)propanamide]
- Ki (Rho kinase 2 (ROCK-II)): < 3 nM
- Ki (Rho kinase 1 (ROCK-I)): < 3 nM

Compound: Cc1c[nH]c2nccc(Oc3ccc(CC(N)C(=O)N4CCN(Cc5ccccc5)CC4)cc3F)c12 (single isomer, unassigned) [Example 132B, 2-amino-1-(4-benzylpiperazin-1-yl)-3-(3-fluoro-4-((3-methyl-1H-pyrrolo[2,3-b]pyridin-4-yl)oxy)phenyl)propan-1-one]
- Ki (Rho kinase 2 (ROCK-II)): < 3 nM
- Ki (Rho kinase 1 (ROCK-I)): 3 to 30 nM

Compound: Cc1c[nH]c2nccc(Oc3ccc(C[C@@H](C(=O)NC4CCCCC4)N(C)C)cc3)c12 [Example 184, (S)—N-cyclohexyl-2-(dimethylamino)-3-(4-((3-methyl-1H-pyrrolo[2,3-b]pyridin-4-yl)oxy)phenyl)propanamide]
- Ki (Rho kinase 2 (ROCK-II)): < 3 nM
- Ki (Rho kinase 1 (ROCK-I)): < 3 nM

Compound: Cc1c[nH]c2nccc(Oc3ccc(C[C@H](N)C(=O)NC4(CO)CCN(C)CC4)cc3F)c12 [Example 37, (S)-2-amino-3-(3-fluoro-4-((3-methyl-1H-pyrrolo[2,3-b]pyridin-4-yl)oxy)phenyl)-N-(4-(hydroxymethyl)-1-methylpiperidin-4-yl)propanamide]
- Ki (Rho kinase 2 (ROCK-II)): < 3 nM
- Ki (Rho kinase 1 (ROCK-I)): < 3 nM

Compound: Cc1c[nH]c2nccc(Oc3ccc(CC(N)C(=O)N4CCCCC4)cc3F)c12 (stereo not shown) [Example 77, 2-amino-3-(3-fluoro-4-((3-methyl-1H-pyrrolo[2,3-b]pyridin-4-yl)oxy)phenyl)-1-(piperidin-1-yl)propan-1-one]
- Ki (Rho kinase 2 (ROCK-II)): < 3 nM
- Ki (Rho kinase 1 (ROCK-I)): < 3 nM

Compound: N#Cc1c[nH]c2ncnc(Oc3ccc(C[C@H](N)C(=O)N4CCN(Cc5ccccc5)CC4)cc3F)c12 [Example 130, (S)-4-(4-(2-amino-3-(4-benzylpiperazin-1-yl)-3-oxopropyl)-2-fluorophenoxy)-7H-pyrrolo[2,3-d]pyrimidine-5-carbonitrile]
- Ki (Rho kinase 2 (ROCK-II)): < 3 nM
- Ki (Rho kinase 1 (ROCK-I)): < 3 nM

Compound: Cc1c[nH]c2nccc(Oc3ccc(CC(N)C(=O)N4CCN(Cc5ccccc5)CC4)cc3F)c12 (stereo not shown) [Example 132, 2-amino-1-(4-benzylpiperazin-1-yl)-3-(3-fluoro-4-((3-methyl-1H-pyrrolo[2,3-b]pyridin-4-yl)oxy)phenyl)propan-1-one]
- Ki (Rho kinase 2 (ROCK-II)): < 3 nM
- Ki (Rho kinase 1 (ROCK-I)): < 3 nM

Compound: CNC(=O)c1cccc(CN2CCN(C(=O)[C@@H](N)Cc3ccc(Oc4ccnc5[nH]cc(C)c45)c(F)c3)CC2)c1 [Example 165, (S)-3-((4-(2-amino-3-(3-fluoro-4-((3-methyl-1H-pyrrolo[2,3-b]pyridin-4-yl)oxy)phenyl)propanoyl)piperazin-1-yl)methyl)-N-methylbenzamide]
- Ki (Rho kinase 2 (ROCK-II)): < 3 nM
- Ki (Rho kinase 1 (ROCK-I)): < 3 nM

Compound: Cc1c[nH]c2nccc(Oc3ccc(C[C@H](N)C(=O)N4CC(N(C)C)C4)cc3F)c12 [Example 41, (S)-2-amino-1-(3-(dimethylamino)azetidin-1-yl)-3-(3-fluoro-4-((3-methyl-1H-pyrrolo[2,3-b]pyridin-4-yl)oxy)phenyl)propan-1-one]
- Ki (Rho kinase 2 (ROCK-II)): < 3 nM
- Ki (Rho kinase 1 (ROCK-I)): < 3 nM

Compound: Cc1c[nH]c2nccc(Oc3ccc(C[C@H](N)C(=O)NCC4CCN(C)CC4)cc3F)c12 [Example 40, (S)-2-amino-3-(3-fluoro-4-((3-methyl-1H-pyrrolo[2,3-b]pyridin-4-yl)oxy)phenyl)-N-((1-methylpiperidin-4-yl)methyl)propanamide]
- Ki (Rho kinase 2 (ROCK-II)): < 3 nM
- Ki (Rho kinase 1 (ROCK-I)): 3 to 30 nM

Compound: Cc1c[nH]c2nccc(Oc3ccc(CC(N)C(=O)Nc4ccncc4)cc3F)c12 (stereo not shown) [Example 71, 2-amino-3-(3-fluoro-4-((3-methyl-1H-pyrrolo[2,3-b]pyridin-4-yl)oxy)phenyl)-N-(pyridin-4-yl)propanamide]
- Ki (Rho kinase 2 (ROCK-II)): < 3 nM
- Ki (Rho kinase 1 (ROCK-I)): < 3 nM

Compound: Cc1c[nH]c2nccc(Oc3ccc(CC(N)C(=O)N4CCN(Cc5ccc(F)cc5)CC4)cc3F)c12 (stereo not shown) [Example 74, 2-amino-3-(3-fluoro-4-((3-methyl-1H-pyrrolo[2,3-b]pyridin-4-yl)oxy)phenyl)-1-(4-(4-fluorobenzyl)piperazin-1-yl)propan-1-one]
- Ki (Rho kinase 2 (ROCK-II)): < 3 nM
- Ki (Rho kinase 1 (ROCK-I)): < 3 nM

Compound: Cc1c[nH]c2nccc(Oc3ccc(C[C@H](N)C(=O)N4CCN(Cc5cccnc5)CC4)cc3F)c12 [Example 28, (S)-2-amino-3-(3-fluoro-4-((3-methyl-1H-pyrrolo[2,3-b]pyridin-4-yl)oxy)phenyl)-1-(4-(pyridin-3-ylmethyl)piperazin-1-yl)propan-1-one]
- Ki (Rho kinase 2 (ROCK-II)): < 3 nM
- Ki (Rho kinase 1 (ROCK-I)): < 3 nM

Compound: N[C@H](Cc1ccc(Oc2ccnc3[nH]ccc23)cc1)C(=O)NC1CCOCC1 [Example 100, (R)-3-(4-((1H-pyrrolo[2,3-b]pyridin-4-yl)oxy)phenyl)-2-amino-N-(tetrahydro-2H-pyran-4-yl)propanamide]
- Ki (Rho kinase 2 (ROCK-II)): > 30 nM
- Ki (Rho kinase 1 (ROCK-I)): > 30 nM

Compound: N[C@@H](Cc1ccc(Oc2ccnc3[nH]cc(F)c23)cc1)C(=O)N1CCN(Cc2ccccc2)CC1 [Example 114, (S)-2-amino-1-(4-benzylpiperazin-1-yl)-3-(4-((3-fluoro-1H-pyrrolo[2,3-b]pyridin-4-yl)oxy)phenyl)propan-1-one]
- Ki (Rho kinase 2 (ROCK-II)): < 3 nM
- Ki (Rho kinase 1 (ROCK-I)): < 3 nM

Compound: Cc1c[nH]c2ncnc(Oc3ccc(C[C@H](N)C(=O)N4CCC(Oc5cccnc5)CC4)cc3F)c12 [Example 126, (S)-2-amino-3-(3-fluoro-4-((5-methyl-7H-pyrrolo[2,3-d]pyrimidin-4-yl)oxy)phenyl)-1-(4-(pyridin-3-yloxy)piperidin-1-yl)propan-1-one]
- Ki (Rho kinase 2 (ROCK-II)): 3 to 30 nM
- Ki (Rho kinase 1 (ROCK-I)): 3 to 30 nM

Compound: Cc1c[nH]c2nccc(Oc3ccc(C[C@H](N)C(=O)N4CCN(C(=O)c5cccc(CN(C)C)c5)CC4)cc3F)c12 [Example 173, (S)-2-amino-1-(4-(3-((dimethylamino)methyl)benzoyl)piperazin-1-yl)-3-(3-fluoro-4-((3-methyl-1H-pyrrolo[2,3-b]pyridin-4-yl)oxy)phenyl)propan-1-one]
- Ki (Rho kinase 2 (ROCK-II)): < 3 nM
- Ki (Rho kinase 1 (ROCK-I)): < 3 nM

Compound: Cc1c[nH]c2nccc(Oc3ccc(C[C@H](N)C(=O)N4CCN(S(=O)(=O)c5ccccc5)CC4)cc3F)c12 [Example 22, (S)-2-amino-3-(3-fluoro-4-((3-methyl-1H-pyrrolo[2,3-b]pyridin-4-yl)oxy)phenyl)-1-(4-(phenylsulfonyl)piperazin-1-yl)propan-1-one]
- Ki (Rho kinase 2 (ROCK-II)): < 3 nM
- Ki (Rho kinase 1 (ROCK-I)): < 3 nM

Compound: N[C@@H](Cc1ccc(Oc2ccnc3[nH]ccc23)cc1)C(=O)NC1CCCCC1 [Example 111, (S)-3-(4-((1H-pyrrolo[2,3-b]pyridin-4-yl)oxy)phenyl)-2-amino-N-cyclohexylpropanamide]
- Ki (Rho kinase 2 (ROCK-II)): < 3 nM
- Ki (Rho kinase 1 (ROCK-I)): 3 to 30 nM
